The subject of one test is MV4-11. As to the kind of experiment: Cytotoxicity towards MV4-11 cell line. The test is classed as cell-based. The note with it: Homo sapiens. The protocol:
(§1) In various embodiments, the compounds of the disclosure are those in which show IC50 values in cytotoxicity experiments towards cells lines MV4-11 and U937 of >20 μM, 10-20 μM, 5-10 μM, 1-5 μM, or <1 μM.
(§2) The IC50 is divided into 5 categories: A<1 μM, B 1-5 μM, C 5-10 μM, D 10-20 μM, and E>20 μM.

Another test relates to MV4-11 cells. As to the kind of experiment: Systemic (disseminated) MV4-11 model of AML in SCID mice, survival. The test is classed as in vivo. The note with it: 6 days per week, days 4-58, IV MV4-11 (FIG. 3). The protocol: FIG. 3. Example of survival of SCID mice inoculated via IV route with MV4-11 cells and treated via oral gavage with vehicle control, TT-01901 at 100 mg/kg and TT-03586 at 50 mg/kg 6 days per week on days 4-58. Mice were sacrificed according to IACUC regulations after losing more than 20% of body weight or becoming moribund and paralyzed.
Efficacy of compounds was tested in two types of xenograft models of leukemia: subcutaneous (SC) (development of tumors after SC inoculation of cells) and systemic and disseminated (development of tumors on different organs after intravenous inoculation of cells). MV4-11 cells (ATCC CRL-9591) of acute myelomonocytic leukemia (AML) were used.
In this model leukemia cells either from patient of from cell lines are administered intravenously into mice and leukemia cells are engrafted into blood and blood-forming organs (bone marrow, thymus, spleen).
In systemic model of AML SCID mice were irradiated with 3 Gy and inoculated intravenously with MV4-11 cells 24 h after irradiation. Mice were treated with vehicle control, TT-01901 and TT-03586 during days 4-58 (FIG. 3). 30 days after cells implantation mice treated with vehicle were gradually becoming sick, scruffy and were losing weight. […] The ratio of survival of treated mice versus survival of control mice in percent (T/C) was calculated using formula: T/C %=average survival time for treated mice/average survival time for control mice*100. Increase in the survival (IS) was calculated using formula: IS=(average survival time of treated mice−average survival time of control mice)/average survival time of control mice*100. […] The corresponding increase in survival was 35% and 48%.

The subject of another test is U-937. As to the kind of experiment: Cytotoxicity towards U-937 cell line. The test is classed as cell-based. As to conditions: Homo sapiens. The procedure: as §1, §2

In general, IC50 refers to the concentration that gives 50% inhibition.

For `O=C(NCCCc1cn[nH]c1)c1ccc(N2CCOCC2)c(C#Cc2ccc(F)cc2)c1` [TT-03586], the IC50 in the test with MV4-11 and in the test on U-937 was under 1000 nM throughout. Also, in the test with MV4-11 cells (50 mg/kg oral gavage), the “increase in survival (IS)” value is on record as 48%. For the same molecule, the “survival of treated mice versus control mice (T/C %)” value in the test on MV4-11 cells (50 mg/kg oral gavage) was found to be 148%.

`O=C(NCCCn1ccnc1)c1ccc(-n2cccn2)c(C#Cc2ccccc2)c1` [TT-01901] showed a half-maximal inhibitory concentration (IC50) in the test with MV4-11 of under 1000 nM. Besides, in the test on MV4-11 cells (100 mg/kg oral gavage), the “increase in survival (IS)” value amounted to 35% and the “survival of treated mice versus control mice (T/C %)” value is listed as 135%. This molecule also yielded a 50% inhibitory concentration (IC50) in the test on U-937 of under 1000 nM.

The record behind these values is patent US10538520B2, “Benzamide and nicotinamide compounds and methods of using same” (OncoTartis Inc., priority 2013, dated 2020).
